Laboratory results from patent publication US5248221A, “Antifouling coating composition comprising lactone compounds, method for protecting aquatic structures, and articles protected against fouling organisms” (Rohm and Haas Company, priority 1992, dated 1993).
Converted amounts (≈) assume the structure as drawn.

Key:
[1] = tested on: cyprid larvae of the barnacle Balanus amphitrite; assay: Settlement assay for cyprid-stage barnacle larvae (% settlement)
Method: All compounds were tested for their ability to inhibit settlement by cyprid larvae of the barnacle Balanus amphitrite . […] Controls consisted of barnacle larvae and filtered seawater added to the dishes or vials without test compound. Dishes were then incubated for 20-24 hrs at 28° C. with light for approximately 15 hours and in darkness for approximately 9 hours. The dishes or vials were then removed from the incubator, examined under a dissecting microscope to determine whether larvae were living or dead. Larvae were then killed by addition of several drops of 10% formalin solution. Settlement rate was quantified as number of larvae that had attached to the dish or vial surface, expressed as a percentage of total larvae in the dish or vial. Experiments were performed in duplicate.
A number of lactones were tested for control of barnacle settlement. All lactones were tested at a concentration of 3×10^-6 M in dishes containing seawater. The larvae were added and the test conducted as described above.
Five ml of each solution were added to duplicate dishes. The larvae were then added to the dishes and the test conducted as described above.
Aliquots of these solutions were taken and added to duplicate dishes. […] The larvae were then added to the dishes and the test conducted as described above.
A series of solutions of a-angelica lactone in seawater at concentrations ranging from 500 μg/ml to 5 ng/ml were prepared. Aliquots of these solutions were taken and added to duplicate dishes. […] The larvae were then added to the dishes and the test conducted as described above.
A solution of 2-coumaranone (25 μg in 50 ml of filtered, aged seawater) was prepared. The larvae were then added to the dishes and the test conducted as described above.
A series of solutions of γ-decalactone in seawater at concentrations ranging from 500 μg/ml to 5 pg/ml were prepared. Aliquots of these solutions were taken and added to duplicate dishes. […] The larvae were then added to the dishes and the test conducted as described above.
A series of solutions of γ-valerolactone in seawater at concentrations ranging from 500 μg/ml to 500 pg/ml were prepared. Aliquots of these solutions were taken and added to duplicate dishes. […] The larvae were then added to the dishes and the test conducted as described above.

[2] = tested on: nauplius stage larvae; assay: whole plant or invertebrate; details: for LC50: Amphibalanus amphitrite, read-out: ED50 (half-maximal inhibition)
Method: Toxicity assays were conducted by adding nauplius stage larvae to 50×5 mm polystyrene Petri dishes or glass vials containing 5 ml of 100 kDa iltered seawater. […] Dishes or vials receiving no test compound served as controls. The dishes or vials were incubated at 28° C. with a 15:9 light:dark cycle. […] The number of living and dead larvae were then counted. Probit analysis was used to obtain concentrations corresponding to half-maximal inhibition (EC50 values).

[3] = Table 1, 3×10^-6 M in seawater, dishes, Control 35

O=C1Cc2ccccc2O1 [2-coumaranone]
% Settlement ([1]; Table 6 (Example 6), nominal 5 ng/ml, Control 58): 54% | % Settlement ([1]; Table 6 (Example 6), nominal 50 ng/ml, Control 58): 61% | % Settlement ([1]; Table 6 (Example 6), nominal 500 ng/ml, Control 58): 59% | % Settlement ([1]; Table 6 (Example 6), nominal 5 μg/ml, Control 58): 51% | % Settlement ([1]; Table 6 (Example 6), nominal 50 μg/ml, Control 58): 64% | % Settlement ([1]; Table 6 (Example 6), nominal 500 μg/ml, Control 58): 0%

C=C1C(=O)O[C@@H]2C[C@@]3(C)CCC[C@H](C)C3=C[C@H]12 [alantolactone]
ED50 (half-maximal inhibition) ([2]; glass): 500 ng/mL (≈ 2.15 µM)

CC1=CCC(=O)O1 [α-angelica lactone]
LC50 [2]: 70 µg/mL (≈ 714 µM) | % Settlement ([1]; Table 4 (Example 4), 5 ng/ml, Control 62): 62% | % Settlement ([1]; Table 4 (Example 4), 50 ng/ml, Control 62): 65% | % Settlement ([1]; Table 4 (Example 4), 500 ng/ml, Control 62): 60% | % Settlement ([1]; Table 4 (Example 4), 5 μg/ml, Control 62): 54% | % Settlement ([1]; Table 4 (Example 4), 50 μg/ml, Control 62): 39% | % Settlement ([1]; Table 4 (Example 4), 500 μg/ml, Control 62): 0% | % Settlement ([1]; Table 5 (Example 5, second test), 5 ng/ml, Control 66): 41% | % Settlement ([1]; Table 5 (Example 5, second test), 50 ng/ml, Control 66): 53% | % Settlement ([1]; Table 5 (Example 5, second test), 500 ng/ml, Control 66): 33% | % Settlement ([1]; Table 5 (Example 5, second test), 5 μg/ml, Control 66): 33% | % Settlement ([1]; Table 5 (Example 5, second test), 50 μg/ml, Control 66): 3% | % Settlement ([1]; Table 5 (Example 5, second test), 500 μg/ml, Control 66): 0%

C=C1CCOC1=O [α-methylene-γ-butyrolactone]
% Settlement ([1]; Table 2 (Example 2), 5 ng/ml, Control 62): 61% | % Settlement ([1]; Table 2 (Example 2), 50 ng/ml, Control 62): 62% | % Settlement ([1]; Table 2 (Example 2), 500 ng/ml, Control 62): 58% | % Settlement ([1]; Table 2 (Example 2), 5 μg/ml, Control 62): 36% | % Settlement ([1]; Table 2 (Example 2), 50 μg/ml, Control 62): 0% | % Settlement ([1]; Table 2 (Example 2), 500 μg/ml, Control 62): 0% | % Settlement ([1]; Table 3 (Example 3, second test), 50 ng/ml, Control 66): 49% | % Settlement ([1]; Table 3 (Example 3, second test), 500 ng/ml, Control 66): 53% | % Settlement ([1]; Table 3 (Example 3, second test), 5 μg/ml, Control 66): 47% | % Settlement ([1]; Table 3 (Example 3, second test), 50 μg/ml, Control 66): 29% | % Settlement ([1]; Table 3 (Example 3, second test), 500 μg/ml, Control 66): 5%

CC1=C2[C@H]3OC(=O)[C@@H](C)[C@@H]3CC[C@@]2(C)C=CC1=O [α-santonin]
LC50 [2]: 14 µg/mL (≈ 56.8 µM)

CCCCCCC1CCC(=O)O1 (stereo not drawn) [γ-decalactone]
LC50 [2]: 0.004 µg/mL (≈ 0.0235 µM) | % Settlement [1, 3]: 3% | % Settlement ([1]; Table 7 (Example 7), 5 pg/ml, Control 66): 45% | % Settlement ([1]; Table 7 (Example 7), 50 pg/ml, Control 66): 52% | % Settlement ([1]; Table 7 (Example 7), 500 pg/ml, Control 66): 44% | % Settlement ([1]; Table 7 (Example 7), 5 ng/ml, Control 66): 32% | % Settlement ([1]; Table 7 (Example 7), 50 ng/ml, Control 66): 25% | % Settlement ([1]; Table 7 (Example 7), 500 ng/ml, Control 66): 8% | % Settlement ([1]; Table 7 (Example 7), 5 μg/ml, Control 66): 25% | % Settlement ([1]; Table 7 (Example 7), 50 μg/ml, Control 66): 1% | % Settlement ([1]; Table 7 (Example 7), 500 μg/ml, Control 66): 0%

CCCCC1CCC(=O)O1 (stereo not drawn) [γ-octanolactone]
% Settlement [1, 3]: 39%

CC1CCC(=O)O1 (stereo not drawn) [γ-valerolactone]
% Settlement [1, 3]: 26% | % Settlement ([1]; Table 8 (Example 8), 500 pg/ml, Control 66): 55% | % Settlement ([1]; Table 8 (Example 8), 5 ng/ml, Control 66): 43% | % Settlement ([1]; Table 8 (Example 8), 50 ng/ml, Control 66): 42% | % Settlement ([1]; Table 8 (Example 8), 500 ng/ml, Control 66): 48% | % Settlement ([1]; Table 8 (Example 8), 5 μg/ml, Control 66): 42% | % Settlement ([1]; Table 8 (Example 8), 50 μg/ml, Control 66): 37% | % Settlement ([1]; Table 8 (Example 8), 500 μg/ml, Control 66): 52%

CCCCCCC1CCCC(=O)O1 (stereo not drawn) [δ-undecalactone, reference compound]
% Settlement [1, 3]: 40%

O=C1CCCCCO1 [ε-caprolactone, reference compound]
% Settlement [1, 3]: 41%
